Experimental data: article PMC12163657 (ACS Omega, 2025)

How the values were obtained:
ESR1 Asp538Gly = molecular target: T1, ESR1 Asp538Gly (Homo sapiens, UniProt P03372, D538G); experiment: AP; type: cell-based
T1 sequence (P03372 1-595 D538G): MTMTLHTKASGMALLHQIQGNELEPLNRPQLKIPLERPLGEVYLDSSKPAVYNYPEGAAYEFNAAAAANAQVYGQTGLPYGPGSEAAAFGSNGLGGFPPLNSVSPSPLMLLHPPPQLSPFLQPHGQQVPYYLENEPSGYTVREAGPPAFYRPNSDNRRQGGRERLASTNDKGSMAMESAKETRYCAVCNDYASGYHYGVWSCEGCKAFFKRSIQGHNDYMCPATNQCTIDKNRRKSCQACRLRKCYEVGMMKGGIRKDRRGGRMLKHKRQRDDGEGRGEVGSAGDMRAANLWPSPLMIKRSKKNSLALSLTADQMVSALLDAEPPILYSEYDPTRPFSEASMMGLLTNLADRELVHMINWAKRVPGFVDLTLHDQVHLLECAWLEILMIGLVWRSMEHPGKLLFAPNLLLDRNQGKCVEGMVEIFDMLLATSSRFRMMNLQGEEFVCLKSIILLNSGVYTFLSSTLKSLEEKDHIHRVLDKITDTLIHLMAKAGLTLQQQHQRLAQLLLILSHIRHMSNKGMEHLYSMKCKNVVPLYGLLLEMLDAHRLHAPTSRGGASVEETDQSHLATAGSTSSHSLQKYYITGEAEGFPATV

BCRP = molecular target: T2, BCRP (Homo sapiens, UniProt Q9UNQ0); experiment: BCRP inhibition, membrane vesicles; type: in vitro ADME
T2 sequence (Q9UNQ0 1-655): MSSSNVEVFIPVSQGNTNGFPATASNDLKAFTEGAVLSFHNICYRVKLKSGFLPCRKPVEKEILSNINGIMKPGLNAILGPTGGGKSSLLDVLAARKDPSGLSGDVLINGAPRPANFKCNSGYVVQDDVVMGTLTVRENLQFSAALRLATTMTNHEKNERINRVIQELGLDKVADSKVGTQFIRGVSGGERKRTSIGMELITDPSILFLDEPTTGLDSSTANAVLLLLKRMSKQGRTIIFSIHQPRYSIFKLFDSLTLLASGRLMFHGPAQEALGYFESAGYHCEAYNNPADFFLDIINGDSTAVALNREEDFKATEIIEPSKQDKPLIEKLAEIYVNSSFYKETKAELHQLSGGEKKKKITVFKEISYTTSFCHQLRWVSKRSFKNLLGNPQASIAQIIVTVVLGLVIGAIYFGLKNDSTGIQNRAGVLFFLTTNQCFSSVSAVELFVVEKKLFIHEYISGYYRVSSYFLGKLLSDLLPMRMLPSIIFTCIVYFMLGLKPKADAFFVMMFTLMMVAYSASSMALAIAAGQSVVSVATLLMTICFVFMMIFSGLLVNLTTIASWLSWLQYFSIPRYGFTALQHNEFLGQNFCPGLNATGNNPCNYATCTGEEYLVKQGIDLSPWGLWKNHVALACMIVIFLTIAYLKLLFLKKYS

PR = molecular target: T3, PR (Homo sapiens, UniProt P06401); experiment: Reporter assay of gene transcription activity, PR; type: cell-based
T3 sequence (P06401 1-933): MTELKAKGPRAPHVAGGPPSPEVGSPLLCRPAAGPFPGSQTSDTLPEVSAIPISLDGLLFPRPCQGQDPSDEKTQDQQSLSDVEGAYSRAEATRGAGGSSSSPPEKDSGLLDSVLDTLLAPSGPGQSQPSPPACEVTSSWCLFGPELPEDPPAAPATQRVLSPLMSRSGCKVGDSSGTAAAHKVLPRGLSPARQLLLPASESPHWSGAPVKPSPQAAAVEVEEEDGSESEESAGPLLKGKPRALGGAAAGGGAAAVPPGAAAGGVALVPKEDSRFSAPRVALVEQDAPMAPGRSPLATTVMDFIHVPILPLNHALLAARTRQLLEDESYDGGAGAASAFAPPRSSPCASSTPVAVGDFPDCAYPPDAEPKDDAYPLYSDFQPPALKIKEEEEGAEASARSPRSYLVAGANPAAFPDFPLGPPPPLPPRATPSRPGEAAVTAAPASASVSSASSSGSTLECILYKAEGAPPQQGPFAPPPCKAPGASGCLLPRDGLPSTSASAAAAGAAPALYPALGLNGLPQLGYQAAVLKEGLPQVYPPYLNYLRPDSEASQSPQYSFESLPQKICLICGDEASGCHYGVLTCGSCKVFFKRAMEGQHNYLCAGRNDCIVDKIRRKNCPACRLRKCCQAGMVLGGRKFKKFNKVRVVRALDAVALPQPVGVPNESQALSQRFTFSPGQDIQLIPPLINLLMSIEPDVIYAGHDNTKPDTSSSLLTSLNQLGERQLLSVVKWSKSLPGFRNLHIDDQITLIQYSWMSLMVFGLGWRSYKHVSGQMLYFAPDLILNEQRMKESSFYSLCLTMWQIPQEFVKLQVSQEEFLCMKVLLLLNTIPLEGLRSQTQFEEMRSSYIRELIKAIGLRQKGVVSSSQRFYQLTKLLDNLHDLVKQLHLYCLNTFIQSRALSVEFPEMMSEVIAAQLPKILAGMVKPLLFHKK

[1] = Single-dose pharmacokinetics, rat; type: in vivo; conditions: Sprague-Dawley, serum
[2] = Plasma protein binding, rapid equilibrium dialysis, human plasma; type: in vitro ADME
CAMA-1 ESR1 WT cells = experiment: CAMA-1 cell proliferation, ESR1 WT; type: cell-based; conditions: Homo sapiens, CAMA-1, read-out: CAMA-1 cell prolif. pIC50 (converted)
[3] = tested on: E2-induced uterine wet weight; experiment: Ovariectomized mouse uterine wet weight study; type: in vivo; conditions: dose giving 50% inhibition of E2-induced uterine wet weight; oral, once daily, 3 days
[4] = In vivo mouse oral single dose PK
ERβ = ERβ (Homo sapiens, UniProt Q92731); experiment: Reporter assay of gene transcription activity, ERβ; type: cell-based
Sequence of ERβ (Q92731 whole entry, species assumed): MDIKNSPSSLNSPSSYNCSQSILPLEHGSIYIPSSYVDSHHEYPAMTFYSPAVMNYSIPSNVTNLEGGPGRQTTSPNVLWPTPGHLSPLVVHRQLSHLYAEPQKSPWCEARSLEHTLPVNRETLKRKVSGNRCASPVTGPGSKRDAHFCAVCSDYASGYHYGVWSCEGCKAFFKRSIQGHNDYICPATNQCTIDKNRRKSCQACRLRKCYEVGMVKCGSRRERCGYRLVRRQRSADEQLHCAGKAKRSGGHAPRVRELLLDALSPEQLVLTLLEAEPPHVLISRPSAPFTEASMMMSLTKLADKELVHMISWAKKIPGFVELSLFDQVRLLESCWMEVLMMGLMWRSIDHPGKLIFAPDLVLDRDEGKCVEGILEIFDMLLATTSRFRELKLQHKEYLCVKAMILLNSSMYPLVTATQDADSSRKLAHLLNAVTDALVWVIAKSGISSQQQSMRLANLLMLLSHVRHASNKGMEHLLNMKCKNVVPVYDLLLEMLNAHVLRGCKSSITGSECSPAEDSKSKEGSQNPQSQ

- IC50 (ESR1 Asp538Gly): 31.6 nM
- IC50 (BCRP): > 5000 nM
- IC50 (PR): > 3160 nM
- agonist cross-reactivity on PR (PR; in words): no agonist cross-reactivity
- PR pIC50, antag. mode (PR; reporter assay, antag. mode): <5.5
- AUC ([1]; iv, 0.5 mg/kg): 454 ng·h/mL
- Cmax ([1]; iv, 0.5 mg/kg): 313 ng/mL
- Vd ([1]; iv, 0.5 mg/kg): 8 L/kg
- clearance ([1]; iv, 0.5 mg/kg): 13.3 mL/min/kg
- half-life ([1]; iv, 0.5 mg/kg): 7 h
- AUC ([1]; po, 5 mg/kg): 2590 ng·h/mL
- Cmax ([1]; po, 5 mg/kg): 138 ng/mL
- Tmax ([1]; po, 5 mg/kg): 1.5 h
- bioavailability ([1]; po, 5 mg/kg): 55%
- half-life ([1]; po, 5 mg/kg): 16 h
- plasma protein-bound ([2]; across all species, including humans): > 99%
- Plasma free drug percentage ([2]; hu plasma): 0.08%
- total AUCinf ([4]; oral single dose): 2477 ng·h/mL
- free AUCinf ([4]; oral single dose, estimated based on the percent free fraction): 1.5 ng·h/mL
- Cmax ([4]; plasma, po): 121 ng/mL
- half-life ([4]; plasma, po): 18 h
- IC50 (ERβ; Erβ pIC50, agonist mode, agonist mode): > 3160 nM
- IC50 (ERβ; Erβ pIC50, antag. mode, antag. mode): 3.16 nM
Compound: CCCN1CC(Oc2ccc([C@@H]3c4[nH]c5ccccc5c4C[C@@H](C)N3CC(C)(C)F)cc2)C1 [compound 21, (1R,3R)-2-(2-Fluoro-2-methylpropyl)-3-methyl-1-(4-((1-propylazetidin-3-yl)oxy)phenyl)-2,3,4,9-tetrahydro-1H-pyrido[3,4-b]indole]
- IC50 (CAMA-1 ESR1 WT cells): 1.58 nM
- uterine wet weight ID50 [3]: <1 µg/kg
